The values below come from patent US20200009135A1, “THERAPEUTIC APPLICATIONS OF MALT1 INHIBITORS” (MEDIVIR AB, priority 2017, published 2020).

Experiment [1] relates to IL-2 expression in Jurkat (E6-1) cells. The experiment in a line: IL-2 expression assay (down-stream MALT1 activity, Jurkat E6-1). Format: cell-based. The following applies: Homo sapiens; Jurkat E6-1, PMA/Ionomycin stimulation, 24 hours. As for the experimental part: Down-stream MALT1 activity was measured by PMA/lonomycin-induced expression of IL-2 in Jurkat (E6-1) cells. Compounds were distributed in a 96 well plate, 8-point concentration series, 1:3 dilution. Jurkat clone E6-1, 4×10^4 cells/well, were added, and stimulated by PMA/lonomycin (1:500 dilution) for 24 hours at 37° C. Measurement was performed using a MesoScale Sector S600 with the Human IL-2 Tissue Culture kit according to the manufacturers recommendation.

In another experiment the target is T1, MALT1 (Homo sapiens, UniProt Q9UDY8).
T1 construct: endogenous in cells; host or cells: Jurkat clone E6-1 (ATCC)
T1 sequence (Q9UDY8 1-824): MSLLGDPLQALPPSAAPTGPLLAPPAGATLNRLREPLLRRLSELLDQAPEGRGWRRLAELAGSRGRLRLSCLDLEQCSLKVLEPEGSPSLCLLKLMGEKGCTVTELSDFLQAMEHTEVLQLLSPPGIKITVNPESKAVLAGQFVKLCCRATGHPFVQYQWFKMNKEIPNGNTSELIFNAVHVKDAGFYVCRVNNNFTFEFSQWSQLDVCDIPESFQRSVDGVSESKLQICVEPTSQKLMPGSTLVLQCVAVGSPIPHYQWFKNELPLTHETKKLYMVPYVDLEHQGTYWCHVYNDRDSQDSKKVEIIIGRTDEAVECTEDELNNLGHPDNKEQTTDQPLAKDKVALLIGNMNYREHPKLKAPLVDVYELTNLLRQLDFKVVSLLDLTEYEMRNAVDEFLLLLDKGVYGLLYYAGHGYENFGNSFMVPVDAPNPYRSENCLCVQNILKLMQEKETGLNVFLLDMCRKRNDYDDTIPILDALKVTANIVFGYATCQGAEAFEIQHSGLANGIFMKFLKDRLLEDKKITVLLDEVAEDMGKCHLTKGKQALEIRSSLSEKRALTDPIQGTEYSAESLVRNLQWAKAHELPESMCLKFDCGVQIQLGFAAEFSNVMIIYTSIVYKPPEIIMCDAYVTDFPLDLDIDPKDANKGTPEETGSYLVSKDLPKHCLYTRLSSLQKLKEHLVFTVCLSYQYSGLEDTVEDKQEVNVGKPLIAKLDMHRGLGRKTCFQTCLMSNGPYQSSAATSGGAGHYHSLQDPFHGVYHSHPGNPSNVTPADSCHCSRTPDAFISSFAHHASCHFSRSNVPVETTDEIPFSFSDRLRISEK
The experiment in a line: HOIL1 cleavage assay (in-cell MALT1 protease activity, Jurkat E6-1). The format is cell-based. The following applies: Jurkat E6-1, PMA/Ionomycin-induced cleavage of HOIL1, 60 minutes. The procedure:
In-cell MALT1 protease activity, was measured as inhibition of PMA/lonomycin-induced cleavage of HOIL1. Day 1 0.75×10^6 cells/well were seeded in a 48 well plate. Day 2 cells were stimulated by PMA/lonomycin (1:500 dilution) with addition of vehicle or compound in a 5-point concentration series, 1:3 dilution.

The target of another experiment is T2, Full-length MALT1 enzyme (Homo sapiens, UniProt Q9UDY8).
T2 construct: Full-length MALT1 enzyme at 2 nM was assayed in 50 mM HEPES
T2 sequence (Q9UDY8 1-824): T1 sequence (Q9UDY8 1-824)
The experiment in a line: MALT1 biochemical assay. The following applies: 2 nM enzyme, 50 μM Ac-Leu-Arg-Ser-Arg-AMC substrate. The procedure: Full-length MALT1 enzyme at 2 nM was assayed in 50 mM HEPES, 100 mM NaCl, 0.9 M NaCitrate, 1 mM EDTA, pH 7.5, with 50 μM Ac-Leu-Arg-Ser-Arg-AMC as substrate. Compound was added in an 11-point concentration series from 100 μM to 1 nM in half-log dilution.
Compounds were distributed in 384 well plates by Echo550, and the assay was run with fluorescence readings at 460 nm, every 2 minutes for 60 minutes.

For orientation: IC50 means the concentration at which inhibition is half-maximal. `CO[C@@H](C)c1c(NC(=O)Nc2ccnc(C(F)(F)F)c2)cnc2cc(Cl)nn12` [Example 3, (S)-1-(2-Chloro-7-(1-methoxyethyl)pyrazolo[1,5-a]pyrimidin-6-yl)-3-(2-(trifluoromethyl)pyridin-4-yl)urea] displayed a 50% inhibitory concentration (IC50) in experiment [1] of 0.02 µM. This lies in the double-digit nanomolar range.

Consider `CO[C@@H](C)c1c(NC(=O)Nc2cnc(-n3cc(CN)cn3)c(Cl)c2)cnc2cc(Cl)nn12` [Example 1, (S)-1-(6-(4-(aminomethyl)-1H-pyrazol-1-yl)-5-chloropyridin-3-yl)-3-(2-chloro-7-(1-methoxyethyl)pyrazolo[1,5-a]pyrimidin-6-yl)urea], for which the IC50 was 0.04 µM against MALT1, 37.5 nM against Full-length MALT1 enzyme and 0.03 µM in experiment [1].
